Experimental data from PubChem BioAssay (NCI).
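GI50 = concentration required for 50% inhibition of growth. TGI denotes the concentration required for complete inhibition of growth.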

What was measured:
Experiment in all cases: inhibition of tumour cell growth, NCI panel, 384-well format
[1] = test system: SK-MEL-28 melanoma
[2] = test system: SF-539 CNS
[3] = test system: OVCAR-8 ovarian
[4] = test system: SNB-75 CNS
[5] = test system: 786-0 renal
[6] = test system: RPMI-8226 leukemia
[7] = test system: NCI-H322M lung
[8] = test system: SK-MEL-2 melanoma
[9] = test system: TK-10 renal
[10] = test system: HCT-15 colon
[11] = test system: NCI-H226 lung
[12] = test system: HOP-62 NSCLC
[13] = test system: CAKI-1 renal
[14] = test system: NCI-H460 NSCLC
[15] = test system: MALME-3M melanoma
[16] = test system: SNB-19 CNS
[17] = test system: MDA-MB-468 breast
[18] = test system: NCI-H23 lung
[19] = test system: OVCAR-3 ovarian
[20] = test system: SK-MEL-5 melanoma
[21] = test system: SW-620 colon
[22] = test system: COLO 205 colon
[23] = test system: MCF7 breast
[24] = test system: HS 578T breast
[25] = test system: SN12C renal
[26] = test system: HCT-116 colon
[27] = test system: MDA-MB-435 melanoma
[28] = test system: A498 renal
[29] = test system: EKVX NSCLC
[30] = test system: NCI/ADR-RES ovarian
[31] = test system: M14 melanoma
[32] = test system: T-47D breast
[33] = test system: UO-31 renal
[34] = test system: HL-60(TB) leukemia
[35] = test system: CCRF-CEM leukemia
[36] = test system: OVCAR-4 ovarian
[37] = test system: MOLT-4 leukemia
[38] = test system: MDA-MB-231 breast
[39] = test system: A549 NSCLC
[40] = test system: BT-549 breast
[41] = test system: HCC-2998 colon
[42] = test system: KM12 colon
[43] = test system: SF-268 CNS
[44] = test system: HT29 colon
[45] = test system: PC-3 prostate
[46] = test system: ACHN renal
[47] = test system: LOX IMVI melanoma

## COc1cc2nccc(Oc3ccc(NC(=O)C4(C(=O)Nc5ccc(F)cc5)CC4)cc3)c2cc1OC
[1]
  GI50: 3.01 µM
  TGI: 11.3 µM
[2]
  GI50: 1.32 µM
  TGI: 4.74 µM
[3]
  GI50: 3.88 µM
  TGI: 14.6 µM
[4]
  GI50: 1.29 µM
  TGI: 4.35 µM
[5]
  GI50: 4.47 µM
  TGI: 19 µM
[6]
  GI50: 3.09 µM
  TGI: 7.73 µM
[7]
  GI50: 3.36 µM
  TGI: 16 µM
[8]
  GI50: 3.07 µM
  TGI: 7.42 µM
[9]
  GI50: 7.66 µM
  TGI: 33.7 µM
[10]
  GI50: 3.22 µM
  TGI: 10.4 µM
[11]
  GI50: 1.41 µM
  TGI: 4.74 µM
[12]
  GI50: 5.16 µM
  TGI: 24.2 µM
[13]
  GI50: 2.62 µM
  TGI: 9.96 µM
[14]
  GI50: 3.14 µM
  TGI: 9.27 µM
[15]
  GI50: 2 µM
  TGI: 5.44 µM
[16]
  GI50: 7.3 µM
  TGI: > 55.2 µM
[17]
  GI50: 3.67 µM
  TGI: 9.4 µM
[18]
  GI50: 1.34 µM
  TGI: 6.54 µM
[19]
  GI50: 3.36 µM
  TGI: 10.2 µM
[20]
  GI50: 2.19 µM
  TGI: 6.58 µM
[21]
  GI50: 2.13 µM
  TGI: 5.57 µM
[22]
  GI50: 2.14 µM
  TGI: 4.97 µM
[23]
  GI50: 3.55 µM
  TGI: 11.1 µM
[24]
  GI50: 1.96 µM
  TGI: 6.4 µM
[25]
  GI50: 0.372 µM
  TGI: 4.71 µM
[26]
  GI50: 3.78 µM
  TGI: 14.2 µM
[27]
  GI50: 3.94 µM
  TGI: 12 µM
[28]
  GI50: 3.29 µM
  TGI: 12.2 µM
[29]
  GI50: 4.64 µM
  TGI: 15.7 µM
[30]
  GI50: 2.52 µM
  TGI: 9.33 µM
[31]
  GI50: 2.67 µM
  TGI: 7.03 µM
[32]
  GI50: 2.78 µM
  TGI: 10 µM
[33]
  GI50: 3.16 µM
  TGI: 9.08 µM
[34]
  GI50: 2.71 µM
  TGI: 5.24 µM
[35]
  GI50: 1.96 µM
  TGI: 3.52 µM
[36]
  GI50: 4.01 µM
  TGI: 13.1 µM
[37]
  GI50: 1.55 µM
  TGI: 3.62 µM
[38]
  GI50: 2.48 µM
  TGI: 6.76 µM
[39]
  GI50: 2.46 µM
  TGI: 6.13 µM
[40]
  GI50: 4.15 µM
  TGI: 12.9 µM
[41]
  GI50: 5.73 µM
  TGI: 14 µM
[42]
  GI50: 0.0614 µM
  TGI: 14.3 µM
[43]
  GI50: 3.68 µM
  TGI: 12.4 µM
[44]
  GI50: 3.17 µM
  TGI: 12.3 µM
[45]
  GI50: 3.8 µM
  TGI: 15.4 µM
[46]
  GI50: 3.54 µM
  TGI: 16 µM
[47]
  GI50: 3.24 µM
  TGI: 9.47 µM
